Values of other authors, collected in patent publication US20130095160A1, “RESORBABLE POLYSTATIN BIOMATERIALS” (priority 2011, published 2013).

Columns and labels:
eNOS = details: 12 mg (or 10(−5) M lovastatin); previously shown
SR-BI receptor = biological target: T1, SR-BI receptor (Homo sapiens, UniProt Q8WTV0); details: via activation of the SR-BI receptor
T1 sequence (Q8WTV0 1-552): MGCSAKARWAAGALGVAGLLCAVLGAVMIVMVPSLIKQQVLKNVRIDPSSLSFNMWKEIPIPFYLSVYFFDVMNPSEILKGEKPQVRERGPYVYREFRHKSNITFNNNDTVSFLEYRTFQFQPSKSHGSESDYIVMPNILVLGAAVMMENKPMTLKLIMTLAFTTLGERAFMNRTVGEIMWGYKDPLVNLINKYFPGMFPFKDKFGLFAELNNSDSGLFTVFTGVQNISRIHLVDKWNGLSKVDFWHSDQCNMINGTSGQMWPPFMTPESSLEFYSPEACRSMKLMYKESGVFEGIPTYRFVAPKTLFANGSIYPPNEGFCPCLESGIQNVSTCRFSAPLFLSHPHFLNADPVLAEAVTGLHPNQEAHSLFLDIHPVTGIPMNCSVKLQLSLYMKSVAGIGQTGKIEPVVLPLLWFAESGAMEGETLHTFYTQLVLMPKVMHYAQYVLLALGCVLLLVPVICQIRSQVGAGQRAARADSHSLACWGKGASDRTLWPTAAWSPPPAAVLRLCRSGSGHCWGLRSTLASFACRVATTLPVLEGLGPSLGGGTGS

efficiency at generating EDNO compared with HDL (SR-BI receptor): more efficient than HDL
SMILES: CC[C@H](C)C(=O)O[C@H]1C[C@@H](C)C=C2C=C[C@H](C)[C@H](CC[C@@H]3C[C@@H](O)CC(=O)O3)[C@H]21 [lovastatin]
eNOS activation in vitro (eNOS): maximally effective
